Experimental findings from patent US20060009357A1, “Azo dye, ink jet recording ink, heat sensitive recording material, color toner, color filter, ink jet recording method, ink cartridge and ink jet printer” (FUJI PHOTO FILM CO., LTD., priority 2004, published 2006) are described below.

Data set [1] in a line: Light fastness of recorded image (xenon light, weatherometer). It counts as physicochemical. More on the design: key: An image having a dye retention of 80% or higher at every measuring point was graded A; An image having a dye retention lower than 80% at one or two out of three points was graded B; An image having a dye retention lower than 80% at every point was graded C. Conditions: dye retention after xenon light 85,000 lux for 7 days; initial densities 1, 1.5, 2.0; Super Photo Grade paper. The method, then:
An image was recorded on photo glossy paper (Super Photo Grade, available from Fuji Photo Film Co., Ltd.) on ink jet printer (PM-770C, available from Seiko Epson Corp.) by using each of ink liquids A to I. The resulting image was evaluated for hue, light fastness, and ozone resistance as follows.
As to light fastness, the image density immediately after recording (initial density: Ci) was measured with a reflection densitometer X-Rite 310TR. After the image was exposed to xenon light (85,000 lux) for 7 days in a weatherometer (Atlas C.65, from Atlas Electric Devices Co.), the image density (Cf) was measured again at three points whose initial densities were 1, 1.5, and 2.0. A dye retention (%) was calculated from equation: Dye retention (%)=[…]
An image having a dye retention of 80% or higher at every measuring point was graded A. An image having a dye retention lower than 80% at one or two out of three points was graded B. An image having a dye retention lower than 80% at every point was graded C.

Data set [2] in a line: Ozone resistance of recorded image (ozone gas chamber). It counts as physicochemical. Conditions: dye retention after ozone gas 5 ppm for 24 hours; three density points; Super Photo Grade paper. The method, then:
An image was recorded on photo glossy paper (Super Photo Grade, available from Fuji Photo Film Co., Ltd.) on ink jet printer (PM-770C, available from Seiko Epson Corp.) by using each of ink liquids A to I. The resulting image was evaluated for hue, light fastness, and ozone resistance as follows. As to ozone resistance, the recorded image was left to stand in a chamber having an ozone gas concentration of 5 ppm for 24 hours. A dye retention after exposure to ozone was obtained in the same manner as for evaluation of light fastness. The ozone concentration in the chamber was set with an ozone gas monitor (OZG-EM-01, available from […] Co., Ltd.). An image having a dye retention of 70% or higher at every measuring point was graded A. An image having a dye retention lower than 70% at one or two out of three points was graded B. An image having a dye retention lower than 70% at every point was graded C.

Turning to `Cn1c(=O)cc2c3c(c(Nc4ccc(Nc5nc(O)nc(Nc6cc(S(=O)(=O)[O-])ccc6S(=O)(=O)O)n5)cc4S(=O)(=O)O)ccc31)C(=O)c1ccccc1-2.[Na+]` [h-2], in data set [1], the “Light Fastness” value is on record as “B”. Besides, in data set [2], the Ozone fastness entry is recorded as “C (An image having a dye retention lower than 70% at every point was graded C)”.

In the case of `O=C(O)c1ccccc1/N=N/c1c(S(=O)(=O)O)cc2cc(S(=O)(=O)[O-])cc(Nc3nc(O)nc(Nc4ccccc4C(=O)O)n3)c2c1O.[Na+]` [h-3], the “Light Fastness” value in data set [1] was “C (An image having a dye retention lower than 80% at every point was graded C)”. The Ozone fastness result in data set [2] is recorded as “C (An image having a dye retention lower than 70% at every point was graded C)”.
